One may read the inhibition as how much of the control response was suppressed. Broadly, the IC50 is the concentration that gives 50% inhibition.

Here are results for 27 compounds from US11535611B2, “Pyrazolo[3,4-B]pyridines and imidazo[1,5-B]pyridazines as PDE1 inhibitors” (H. Lundbeck A/S, priority 2017, dated 2022).

What all share (type): biochemical
For one assay, the target named is PDE1A (Homo sapiens (Human), UniProt P54750). Description: PDE1 inhibition assay, PDE1A. As to conditions: for inhibition at 10 µM: @ 10 μM compound; for IC50: 15 nM tritium labelled cAMP, 1 hr at room temperature, SPA beads; for inhibition at 1 µM: @ 1 μM compound. As for the experimental part: (§1) PDE1A, PDE1B and PDE1C assays were performed as follows: the assays were performed in 60 μL samples containing a fixed amount of the PDE1 enzyme (sufficient to convert 20-25% of the cyclic nucleotide substrate), a buffer (50 mM HEPES (4-(2-hydroxyethyl)-1-piperazineethanesulfonic acid) pH 7.6; 10 mM MgCl2; 0.02% Tween20), 0.1 mg/ml BSA (bovine serum albumin), 15 nM tritium labelled cAMP and varying amounts of inhibitors. Reactions were initiated by addition of the cyclic nucleotide substrate, and reactions were allowed to proceed for 1 hr at room temperature before being terminated through mixing with 20 μL (0.2 mg) yttrium silicate SPA beads (PerkinElmer). The beads were allowed to settle for 1 hour in the dark before the plates were counted in a Wallac 1450 Microbeta counter. The measured signals were converted to activity relative to an uninhibited control (100%) and IC50 values were calculated using XIFit (model 205, IDBS).

Another assay has as its target PDE1C (Homo sapiens (Human), UniProt Q14123). The experiment in a line: PDE1 inhibition assay, PDE1C. As to conditions: for IC50: 15 nM tritium labelled cAMP, 1 hr at room temperature, SPA beads, read-out: PDE1 C, IC50; for inhibition at 10 µM: @ 10 μM compound, read-out: PDE1 C, % inhibition @ 10 μM; for inhibition at 1 µM: @ 1 μM compound, read-out: PDE1 C, % inhibition @ 1 μM. The procedure:
as §1

The target of a further assay is PDE1B (Homo sapiens (Human), UniProt Q01064). The experiment in a line: PDE1 inhibition assay, PDE1B. As to conditions: 15 nM tritium labelled cAMP, 1 hr at room temperature, SPA beads; read-out: PDE1 B, IC50. As for the experimental part: as §1
Chain of PDE1B (Q01064 whole entry): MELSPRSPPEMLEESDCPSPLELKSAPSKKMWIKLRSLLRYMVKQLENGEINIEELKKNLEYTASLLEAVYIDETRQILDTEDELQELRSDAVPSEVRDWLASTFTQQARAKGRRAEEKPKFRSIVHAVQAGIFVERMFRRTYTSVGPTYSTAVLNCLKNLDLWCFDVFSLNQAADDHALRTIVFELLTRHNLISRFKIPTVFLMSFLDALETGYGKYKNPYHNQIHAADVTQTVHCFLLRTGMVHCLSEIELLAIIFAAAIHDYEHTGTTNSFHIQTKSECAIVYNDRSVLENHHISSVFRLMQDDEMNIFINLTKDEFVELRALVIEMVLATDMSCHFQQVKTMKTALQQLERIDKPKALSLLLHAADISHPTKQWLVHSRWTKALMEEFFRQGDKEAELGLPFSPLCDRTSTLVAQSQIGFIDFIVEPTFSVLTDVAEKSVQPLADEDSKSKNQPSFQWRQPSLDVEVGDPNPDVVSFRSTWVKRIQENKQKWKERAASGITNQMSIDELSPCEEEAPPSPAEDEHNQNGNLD

Chain of PDE1A (P54750 whole entry): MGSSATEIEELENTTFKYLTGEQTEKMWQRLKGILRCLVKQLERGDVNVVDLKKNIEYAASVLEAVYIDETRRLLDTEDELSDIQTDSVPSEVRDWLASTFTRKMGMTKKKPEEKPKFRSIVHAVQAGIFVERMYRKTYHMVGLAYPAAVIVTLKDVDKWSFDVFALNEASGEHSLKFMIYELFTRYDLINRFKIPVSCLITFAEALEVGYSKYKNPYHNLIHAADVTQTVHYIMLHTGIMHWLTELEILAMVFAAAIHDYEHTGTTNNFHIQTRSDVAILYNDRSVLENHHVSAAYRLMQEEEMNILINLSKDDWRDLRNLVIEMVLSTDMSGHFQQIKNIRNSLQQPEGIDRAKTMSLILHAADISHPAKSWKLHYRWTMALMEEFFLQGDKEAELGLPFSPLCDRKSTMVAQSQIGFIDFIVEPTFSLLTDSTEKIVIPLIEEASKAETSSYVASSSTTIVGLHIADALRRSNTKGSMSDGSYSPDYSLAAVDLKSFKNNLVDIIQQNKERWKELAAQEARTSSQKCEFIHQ
Chain of PDE1C (Q14123 whole entry): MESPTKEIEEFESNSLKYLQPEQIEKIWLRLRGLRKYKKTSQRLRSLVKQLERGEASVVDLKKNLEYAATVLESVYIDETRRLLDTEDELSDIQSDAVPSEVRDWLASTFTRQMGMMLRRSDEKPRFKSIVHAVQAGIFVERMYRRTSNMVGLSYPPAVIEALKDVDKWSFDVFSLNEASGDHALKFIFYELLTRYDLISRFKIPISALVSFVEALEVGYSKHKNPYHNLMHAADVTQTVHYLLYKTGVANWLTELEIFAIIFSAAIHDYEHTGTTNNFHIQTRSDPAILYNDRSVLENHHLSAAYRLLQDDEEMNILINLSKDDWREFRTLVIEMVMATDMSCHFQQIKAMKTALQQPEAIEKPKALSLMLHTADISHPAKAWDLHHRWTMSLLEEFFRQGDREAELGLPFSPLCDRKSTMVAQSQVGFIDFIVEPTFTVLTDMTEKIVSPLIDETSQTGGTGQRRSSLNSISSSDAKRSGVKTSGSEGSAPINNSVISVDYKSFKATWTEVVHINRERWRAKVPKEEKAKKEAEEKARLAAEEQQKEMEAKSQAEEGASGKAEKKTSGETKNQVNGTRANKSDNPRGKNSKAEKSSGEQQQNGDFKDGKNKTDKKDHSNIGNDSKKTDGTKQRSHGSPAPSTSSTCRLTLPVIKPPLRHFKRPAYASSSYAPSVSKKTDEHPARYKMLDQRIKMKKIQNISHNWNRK

The compound `COc1cccc(Cc2cc(N[C@@H]3CCOC3)c3c(cnn3C(C)C)n2)c1` [Example 37, 1-isopropyl-5-[(3-methoxyphenyl)methyl]-N-[(3R)-tetrahydrofuran-3-yl]pyrazolo[4,3-b]pyridin-7-amine] returned an inhibition at 10 µM against PDE1A of 60%. Besides, the half-maximal inhibitory concentration (IC50) worked out at 1680 nM on PDE1C and 1340 nM on PDE1B.

As to `CCOc1ncccc1-c1nc2c(C)nc(C(C)C)n2cc1C` [Example 71, 2-(2-ethoxy-3-pyridyl)-6-isopropyl-3,8-dimethyl-imidazo[1,5-a]pyrimidine], the half-maximal inhibitory concentration (IC50) worked out at 74 nM on PDE1A, 99 nM on PDE1C and 17 nM at PDE1B.

Take `CCOc1ncccc1-c1ccn2c([C@H](C)CC)nc(C)c2n1` (single isomer, unassigned) [Example 84, 2-(2-ethoxy-3-pyridyl)-8-methyl-6-[1-methylpropyl]imidazo[1,5-a]pyrimidine]: the figures for the IC50 at PDE1A, at PDE1C and at PDE1B were 159 nM, 323 nM and 33 nM, respectively.

For the compound `CC(C)n1ncc2nc(-c3cccc(OC(F)F)c3)cc(N[C@@H]3CCOC3)c21` [Example 48, 5-[3-(difluoromethoxy)phenyl]-1-isopropyl-N-[(3R)-tetrahydrofuran-3-yl]pyrazolo[4,3-b]pyridin-7-amine], the IC50 against PDE1A is 1100 nM; on PDE1C it was 1730 nM; at PDE1B, 384 nM.

In the case of `CCOc1ncccc1-c1cc(NC(C)C)c2c(cnn2C(C)C)n1` [Example 12, 5-(2-ethoxy-3-pyridyl)-N,1-diisopropyl-pyrazolo[4,3-b]pyridin-7-amine], the half-maximal inhibitory concentration (IC50) against PDE1A is 1120 nM; at PDE1C it was 2230 nM; on PDE1B it was 108 nM.

As for `CCOc1ncccc1-c1cc(NC)c2c(cnn2C(C)C)n1` [Example 13, 5-(2-ethoxy-3-pyridyl)-1-isopropyl-N-methyl-pyrazolo[4,3-b]pyridin-7-amine], the values for the IC50 against PDE1A, at PDE1C and at PDE1B were 1030 nM, 1060 nM and 85 nM, respectively.

For the compound `CCOc1ncccc1-c1nc2c(C)nn(C(C)C)c2cc1C` [Example 63, 5-(2-ethoxy-3-pyridyl)-1-isopropyl-3,6-dimethyl-pyrazolo[4,3-b]pyridine], the half-inhibitory concentration (IC50) at PDE1A was found to be 86 nM; on PDE1C, 175 nM; at PDE1B, 16 nM.

For `CCNc1cc(-c2cccnc2OCC)nc2c(C)nn(C(C)C)c12` [Example 66, 5-(2-ethoxy-3-pyridyl)-N-ethyl-1-isopropyl-3-methyl-pyrazolo[4,3-b]pyridin-7-amine], the IC50 against PDE1A is 60 nM; on PDE1C it was 161 nM; on PDE1B it was 5 nM.

Consider `CC(C)n1ncc2nc(-c3cccnc3)cc(N[C@@H]3CCOC3)c21` [Example 25, 1-isopropyl-5-(3-pyridyl)-N-[(3R)-tetrahydrofuran-3-yl]pyrazolo[4,3-b]pyridin-7-amine], for which the 50% inhibitory concentration (IC50) is 2160 nM on PDE1A and 648 nM on PDE1B. The inhibition at 10 µM at PDE1C is 65%.

Consider `CCOc1ncccc1-c1cc(NC[C@@H]2CCCO2)c2c(cnn2C(C)C)n1` [Example 6, 5-(2-ethoxy-3-pyridyl)-1-isopropyl-N-[[(2S)-tetrahydrofuran-2-yl]methyl]pyrazolo[4,3-b]pyridin-7-amine], for which the IC50 turned out to be 653 nM on PDE1A, 1390 nM on PDE1C and 111 nM at PDE1B.

With `COc1nc(C)ccc1-c1cc(N[C@@H]2CCOC2)c2c(cnn2C(C)C)n1` [Example 29, 1-isopropyl-5-(2-methoxy-6-methyl-3-pyridyl)-N-[(3R)-tetrahydrofuran-3-yl]pyrazolo[4,3-b]pyridin-7-amine], the inhibition at 10 µM against PDE1A was 31%; on PDE1C it was 68%. For the same compound, the 50% inhibitory concentration (IC50) on PDE1B stood at 1690 nM.

Take `CC(C)n1ncc2nc(-c3cncc(C#N)c3)cc(N[C@@H]3CCOC3)c21` [Example 44, 5-[1-isopropyl-7-[[(3R)-tetrahydrofuran-3-yl]amino]pyrazolo[4,3-b]pyridin-5-yl]pyridine-3-carbonitrile]: the inhibition at 10 µM against PDE1A was found to be 33%; on PDE1C, 47%. Further, on PDE1B, the IC50 was 4010 nM.

For `CCOc1ncccc1-c1cc(NC)c2c(n1)c(C)nn2C(C)C` [Example 65, 5-(2-ethoxy-3-pyridyl)-1-isopropyl-N,3-dimethyl-pyrazolo[4,3-b]pyridin-7-amine], the concentration for half-maximal inhibition (IC50) against PDE1A turned out to be 50 nM; on PDE1C it was 111 nM; on PDE1B it was 7 nM.

For `CCOc1ncccc1-c1cc(NC2CCOC2)c2c(cnn2C2COC2)n1` (racemic) [Example 5, (±)-5-(2-ethoxy-3-pyridyl)-1-(oxetan-3-yl)-N-tetrahydrofuran-3-yl-pyrazolo[4,3-b]pyridin-7-amine], the inhibition at 1 µM on PDE1A is 47%; on PDE1C, 20%. Moreover, the half-inhibitory concentration (IC50) at PDE1B was 447 nM.

For the compound `CCOc1ncccc1-c1cc(N2CCCC2)c2c(cnn2C)n1` [Example 14, 5-(2-ethoxy-3-pyridyl)-1-methyl-7-pyrrolidin-1-yl-pyrazolo[4,3-b]pyridine], the IC50 turned out to be 1090 nM against PDE1A, 3500 nM on PDE1C and 640 nM at PDE1B.

With `CCOc1ncccc1-c1cc(N[C@@H]2CCC[C@H]2OC)c2c(cnn2C)n1` [Example 86, 5-(2-ethoxy-3-pyridyl)-N-[(1R,2R)-2-methoxycyclopentyl]-1-methyl-pyrazolo[4,3-b]pyridin-7-amine], the inhibition at 1 µM on PDE1A amounted to 22%; at PDE1C it was 20%. On PDE1B, the half-inhibitory concentration (IC50) amounted to 536 nM.

As for `CCOc1ncccc1-c1ccn2c(C3(C)COC3)nc(C)c2n1` [Example 77, 2-(2-ethoxy-3-pyridyl)-8-methyl-6-(3-methyloxetan-3-yl)imidazo[1,5-a]pyrimidine], the half-maximal inhibitory concentration (IC50) stood at 448 nM on PDE1A, 730 nM on PDE1C and 239 nM at PDE1B.

On to `CCOc1ncccc1-c1ccn2c(C3CCCC3)nc(C)c2n1` [Example 80, 6-cyclopentyl-2-(2-ethoxy-3-pyridyl)-8-methyl-imidazo[1,5-a]pyrimidine], for which the results for the IC50 against PDE1A, at PDE1C and on PDE1B were 3230 nM, 2280 nM and 591 nM, respectively.

On to `CCOc1ncncc1-c1cc(NC2CCOC2)c2c(cnn2C(C)C)n1` (stereo in doubt) [Example 50, 5-(4-ethoxypyrimidin-5-yl)-1-isopropyl-N-[(3R)-tetrahydrofuran-3-yl]pyrazolo[4,3-b]pyridin-7-amine], for which the concentration for half-maximal inhibition (IC50) on PDE1A amounted to 3000 nM; on PDE1C, 1810 nM; at PDE1B, 916 nM.

Take `COc1ncccc1-c1cc(N[C@@H]2CCOC2)c2c(cnn2C(C)C)n1` [Example 28, 1-isopropyl-5-(2-methoxy-3-pyridyl)-N-[(3R)-tetrahydrofuran-3-yl]pyrazolo[4,3-b]pyridin-7-amine]: the IC50 is 533 nM at PDE1A, 1080 nM at PDE1C and 124 nM on PDE1B.

Consider `COc1ccccc1-c1nc2c(C)nn(C(C)C)c2cc1C` [Example 62, 1-isopropyl-5-(2-methoxyphenyl)-3,6-dimethyl-pyrazolo[4,3-b]pyridine], for which the results for the half-maximal inhibitory concentration (IC50) on PDE1A, on PDE1C and at PDE1B were 694 nM, 568 nM and 159 nM, respectively.

On to `CCOc1ncccc1-c1cc(N2CCCC2)c2c(n1)c(C)nn2C` [Example 1, 5-(2-ethoxy-3-pyridyl)-1,3-dimethyl-7-pyrrolidin-1-yl-pyrazolo[4,3-b]pyridine], for which the inhibition at 1 µM on PDE1A was found to be 70%; at PDE1C, 49%. For the same compound, the IC50 at PDE1B is 170 nM.

Consider `CCOc1ncc(C#N)cc1-c1cc(N[C@@H]2CCOC2)c2c(cnn2C(C)C)n1` [Example 55, 6-ethoxy-5-[1-isopropyl-7-[[(3R)-tetrahydrofuran-3-yl]amino]pyrazolo[4,3-b]pyridin-5-yl]pyridine-3-carbonitrile], for which the inhibition at 10 µM at PDE1A came out at 69%. The IC50 on PDE1C came to 2500 nM; on PDE1B, 1380 nM.

Take `CCCn1ncc2nc(-c3cccnc3OCC)cc(N[C@@H]3CCOC3)c21` (single isomer, unassigned) [Example 24, 5-(2-ethoxy-3-pyridyl)-1-propyl-N-[tetrahydrofuran-3-yl]pyrazolo[4,3-b]pyridin-7-amine]: the IC50 against PDE1A was 327 nM; on PDE1C, 703 nM; at PDE1B it was 177 nM.

As for `CCc1ncccc1-c1cc(N[C@@H]2CCOC2)c2c(cnn2C(C)C)n1` [Example 56, 5-(2-ethyl-3-pyridyl)-1-isopropyl-N-[(3R)-tetrahydrofuran-3-yl]pyrazolo[4,3-b]pyridin-7-amine], the inhibition at 10 µM on PDE1A was 51%; on PDE1C it was 59%. The IC50 on PDE1B was 1520 nM.

`CCOc1ncccc1-c1cc(N[C@H]2CCOC2)c2c(cnn2C(C)C)n1` (single isomer, unassigned) [Example 21, 5-(2-ethoxy-3-pyridyl)-1-isopropyl-N-[tetrahydrofuran-3-yl]pyrazolo[4,3-b]pyridin-7-amine]: the IC50 at PDE1B is 48 nM.

`CCOc1ncccc1-c1cc(N[C@H]2CCOC2)c2c(cnn2C(C)C)n1` (single isomer, unassigned) [Example 22, 5-(2-ethoxy-3-pyridyl)-1-isopropyl-N-[tetrahydrofuran-3-yl]pyrazolo[4,3-b]pyridin-7-amine]: the half-maximal inhibitory concentration (IC50) at PDE1B came out at 32 nM.
